Among the data in article PMC7756412 (2020) are Ka, ΔTm and binding values, retold here.

The term ΔTm denotes the change in melting temperature against a reference sample.

In assay [1] the test system is Myc-dup3 (DNA, G4) TGAGGGTGGGTAGGGTGGGCTAGTCATTTTGACTAG
In words: ITC, two-site fit. The settings on record: 120 mM K+; 100 mM KCl, 20 mM potassium phosphate pH 7.0, 5% DMSO, 40 °C; high-affinity site. For orientation: ITC needs no label: the signal is the heat of the interaction.

The subject of assay [2] is Myc3l-dup5 (DNA, G4) GATCAGTTTTACTGATCGGGTGGTGGGTGGGGAAGG
Briefly: ITC, two-site fit. The settings on record: 120 mM K+; 100 mM KCl, 20 mM potassium phosphate pH 7.0, 5% DMSO, 40 °C; high-affinity site.

Assay [3] relates to Myc-dup3 (DNA, G4) TGAGGGTGGGTAGGGTGGGCTAGTCATTTTGACTAG
Briefly: CD melting, 265 nm. The following applies: 120 mM Na+; 100 mM NaCl, 20 mM sodium phosphate pH 7; 5 µM DNA, 1 equiv PIQ; quadruplex domain; 44.7 to 68.2 °C.

For assay [4] the test system is unchanged. In words: UV melting, 260 nm. The following applies: 120 mM Na+; 100 mM NaCl, 20 mM sodium phosphate pH 7; 1 equiv PIQ; duplex domain; derived from two Tm (63.6, 70.8).
Assay [5] concerns Myc-dup5 (DNA, G4) GATCAGTTTTACTGATCGGGTGGGTAGGGTGGGTA
In words: CD melting, 265 nm. The settings on record: 120 mM Na+; 100 mM NaCl, 20 mM sodium phosphate pH 7; 5 µM DNA, 1 equiv PIQ; quadruplex domain; 53.2 to 69.7 °C.

For assay [6] the test system is unchanged. Briefly: UV melting, 260 nm. The following applies: 120 mM Na+; 100 mM NaCl, 20 mM sodium phosphate pH 7; 1 equiv PIQ; duplex domain; derived from two Tm (67.8, 73.5).
Assay [7] has as its system Myc3l-dup5 (DNA, G4) GATCAGTTTTACTGATCGGGTGGTGGGTGGGGAAGG
Briefly: CD melting, 265 nm. The settings on record: 120 mM Na+; 100 mM NaCl, 20 mM sodium phosphate pH 7; 1 equiv PIQ; quadruplex domain; derived from two Tm (66.3, 73.8).

For assay [8] the test system is unchanged. In words: UV melting, 260 nm. The following applies: 120 mM Na+; 100 mM NaCl, 20 mM sodium phosphate pH 7; 1 equiv PIQ; duplex domain; derived from two Tm (69.5, 76.1).
In assay [9] the test system is Myc-dup5 (DNA, G4) GATCAGTTTTACTGATCGGGTGGGTAGGGTGGGTA
In words: NMR titration, chemical shift perturbation. The settings on record: K+ (10 mM potassium phosphate); pH 7.0, 20 °C; 5' quadruplex-duplex junction; ITC isotherm not reliably fitted (Ka n.d.).

Take `CCN(CC)CCCNC(=O)c1ccc(-c2c3cccc(C)c3[n+](C)c3c2[nH]c2c(C)cccc23)cc1`: the Ka entry in [1] is listed as “(1.6±0.4)×10^7 M^-1”; in [2], “(1.6±0.2)×10^7 M^-1”. The ΔTm was 23 °C in assay [3]; 7.2 °C in assay [4]; 17 °C in [5]; 5.7 °C in assay [6]; 7.5 °C in assay [7]; 6.6 °C in assay [8]. Also, the binding result in assay [9] is “yes”.
